Assay results as given in patent US20120034613A1, “Apparatus and Method for Testing Relationships Between Gene Expression and Physical Appearance of Skin” (NSE Products, Inc., priority 2010, published 2012).

Test system: EpidermFT™ Skin Model (EFT-400) full thickness skin cultures
Test: Affymetrix GeneChip HG U133 Plus 2.0 microarray global gene expression, agent-exposed vs untreated skin cultures
Assay type: cell-based, human
Conditions: Salicin 0.5% vs Untreated Control, 24 hr treatment

OCc1ccccc1O[C@@H]1O[C@H](CO)[C@@H](O)[C@H](O)[C@H]1O [Salicin, 2-(Hydroxymethyl)phenyl β-D-glucospyranoside]
Direction UGCGL2 (218801_at): up
Direction UST (205139_s_at): up
Direction WIPI1 (203827_at): up
Direction XPO1 (235927_at): up
Direction ZFAND5 (217649_at): up
Direction ZFP36L1 (211965_at): up
Direction ZNF281 (228785_at): up
Direction ZNF331 (219228_at): up
Direction ZNF697 (227080_at): up
Fold change ABHD2 (205566_at): 2.508
Fold change ABHD2 (221815_at): 2.348
Fold change ABHD2 (225337_at): 2.704
Fold change ADAMTS5 (235368_at): 2.751
Fold change ADAMTS6 (1570351_at): 2.37
Fold change ADCYAP1 (230237_at): 2.573
Fold change AHI1 (220841_s_at): 2.322
Fold change AHI1 (221569_at): 2.667
Fold change AKR1C1 (1562102_at): 2.331
Fold change AKT3 (212607_at): 2.622
Fold change AKT3 (212609_s_at): 2.3
Fold change AKT3 (222880_at): 2.365
Fold change AKT3 (224229_s_at): 2.751
Fold change ALG9 (228817_at): 2.321
Fold change ANKRD28 (213035_at): 2.361
Fold change ANKRD28 (229307_at): 2.421
Fold change ARMC8 (1555281_x_at): 2.299
Fold change ARNT2 (202986_at): 2.361
Fold change ATF3 (1554980_a_at): 2.623
Fold change ATP2A3 (207522_s_at): 2.434
Fold change BAG2 (209406_at): 2.774
Fold change BCL2L11 (1558143_a_at): 2.347
Fold change BNC2 (220272_at): 2.471
Fold change BNC2 (235723_at): 2.707
Fold change C1GALT1C1 (238989_at): 2.327
Fold change C1orf67 /// DNAH14 (242283_at): 2.614
Fold change C13orf33 (227058_at): 2.621
Fold change CABLES1 (225532_at): 2.633
Fold change CARD16 (1552701_a_at): 2.363
Fold change CCR1 (205098_at): 2.474
Fold change CDCP1 (1554110_at): 2.44
Fold change CDR2 (209501_at): 2.488
Fold change CHST2 (203921_at): 2.332
Fold change CLGN (205830_at): 2.486
Fold change CNOT3 (203239_s_at): 2.466
Fold change CPM (241765_at): 2.574
Fold change CPM (243403_x_at): 2.436
Fold change CREM (207630_s_at): 2.309
Fold change CUL4B (202213_s_at): 2.538
Fold change CXCL1 (204470_at): 2.363
Fold change CYP7B1 (207386_at): 2.782
Fold change CYR61 (210764_s_at): 2.692
Fold change DENND3 (212975_at): 2.471
Fold change DENND5B (228551_at): 2.474
Fold change DGKI (206806_at): 2.74
Fold change DNAJB9 (202842_s_at): 2.613
Fold change DNAJB9 (1554462_a_at): 2.666
Fold change DNAJC10 (221781_s_at): 2.508
Fold change DNAJC10 (221782_at): 2.553
Fold change DOCK4 (205003_at): 2.383
Fold change DOCK5 (230206_at): 2.653
Fold change DOCK5 (230263_s_at): 2.362
Fold change DOK6 (236290_at): 2.316
Fold change DSEL (232825_s_at): 2.821
Fold change DUSP4 (204015_s_at): 2.668
Fold change DZIP1 (204557_s_at): 2.653
Fold change EIF2AK3 (218696_at): 2.305
Fold change ELL2 (214446_at): 2.557
Fold change ELTD1 (219134_at): 2.637
Fold change ENPP1 (205066_s_at): 2.414
Fold change ENTPD7 (220153_at): 2.395
Fold change EPS8 (202609_at): 2.334
Fold change EREG (205767_at): 2.487
Fold change ERO1LB (220012_at): 2.376
Fold change FADS1 (208963_x_at): 2.411
Fold change FADS1 (208964_s_at): 2.638
Fold change FAM20A (226804_at): 2.437
Fold change FAM107B (223058_at): 2.544
Fold change FAM107B (223059_s_at): 2.476
Fold change FAR2 (220615_s_at): 2.497
Fold change FAT4 (219427_at): 2.428
Fold change FEM1B (212374_at): 2.726
Fold change FGF7 (1555103_s_at): 2.35
Fold change FGF7 /// KGFLP1 /// KGFLP2 (1554741_s_at): 2.506
Fold change FHOD3 (218980_at): 2.607
Fold change FKBP11 (219117_s_at): 2.431
Fold change FKBP11 (219118_at): 2.422
Fold change FMN2 (1555471_a_at): 2.355
Fold change FN1 (214701_s_at): 2.436
Fold change FN1 (214702_at): 2.71
Fold change FOXJ3 (217310_s_at): 2.327
Fold change FPR1 (205119_s_at): 2.402
Fold change GAS1 (204457_s_at): 2.783
Fold change GCLM (203925_at): 2.646
Fold change GCLM (236140_at): 2.667
Fold change GEM (204472_at): 2.52
Fold change GFPT1 (226886_at): 2.512
Fold change GFPT2 (205100_at): 2.3
Fold change GLIPR1 (204222_s_at): 2.366
Fold change GRAMD1A (224807_at): 2.363
Fold change GRAMD1B (212906_at): 2.401
Fold change GUCY1A3 (221942_s_at): 2.594
Fold change GUCY1A3 (229530_at): 2.498
Fold change HERC3 (1554290_at): 2.372
Fold change HEY1 (44783_s_at): 2.372
Fold change HIST1H2AB /// HIST1H2AE (214469_at): 2.52
Fold change HIST1H2AD /// HIST1H3A /// HIST1H3B /// HIST1H3C /// HIST1H3D /// HIST1H3E /// HIST1H3F /// HIST1H3G /// HIST1H3H /// HIST1H3I /// HIST1H3J (214472_at): 2.608
Fold change HIST2H2AA3 /// HIST2H2AA4 (214290_s_at): 2.42
Fold change HK2 (222305_at): 2.329
Fold change HOXB2 (205453_at): 2.404
Fold change HSD17B2 (204818_at): 2.766
Fold change HSPA13 (202557_at): 2.665
Fold change ID2 /// ID2B (213931_at): 2.802
Fold change IGFBP5 (211958_at): 2.712
